In patent US20260034130A1 (priority 2022, published 2026):

Experiments:
[1] = tested on: patients with acute ischemic stroke or high-risk TIA; test: AXIOMATIC-SSP composite of new ischemic stroke, MI and all-cause death; format: in vivo, human; conditions: up to Day 90
From the text: Event rates of the composite of new ischemic non-fatal stroke, non-fatal myocardial infarction, or all-cause death.

[2] = tested on: patients with acute ischemic stroke or high-risk TIA; test: AXIOMATIC-SSP vascular territory of incident infarcts at Day 90 compared with baseline; format: in vivo, human
From the text: At baseline, recent ischemic lesions were detected and quantified using the DWI sequence. Incident infarcts (defined as new imaging lesions compared to the baseline MRI which may be associated with a symptomatic ischemic stroke or be covert in nature) were detected at Day 90 on the FLAIR sequence and categorized as DWI positive or DWI negative based on whether they could also be detected on the DWI sequence. DWI positive lesions at Day 90 were likely associated with infarctions occurring late during the follow-up period (approximately from Day 30 to Day 90) while DWI negative lesions were more likely related to earlier infarctions (approximately occurring by Day 30). The vascular territory of incident infarcts was also assessed at Day 90.

Compound: C[C@@H]1CCC[C@H](n2cnc(-c3cc(Cl)ccc3-n3cc(Cl)nn3)cc2=O)c2cc(ccn2)-c2c(cnn2C(F)F)NC1=O [milvexian, (5R,9S)-9-(4-(5-chloro-2-(4-chloro-1H-1,2,3-triazol-1-yl)phenyl)-6-oxopyrimidin-1(6H)-yl)-21-(difluoromethyl)-5-methyl-21H-3-aza-1(4,2)-pyridina-2(5,4)-pyrazolacyclonaphan-4-one]
- Myocardial Infarction, subjects n ([1]; 50 mg BID, N = 328): 1
- New Ischemic Stroke, MI And All Cause Death: Subjects With Event (%) ([1]; 50 mg BID, N = 328): (4.9) %
- All Cause Death (%) ([1]; 100 mg BID, N = 310): (1.6) %
- All Cause Death, subjects n ([1]; 100 mg BID, N = 310): 5
- Myocardial Infarction (%) ([1]; 100 mg BID, N = 310): (0.6) %
- Myocardial Infarction, subjects n ([1]; 100 mg BID, N = 310): 2
- New Ischemic Stroke, MI And All Cause Death: Subjects With Event (%) ([1]; 100 mg BID, N = 310): (5.2) %
- All Cause Death, subjects n ([1]; 200 mg BID, N = 351): 4
- Myocardial Infarction, subjects n ([1]; 200 mg BID, N = 351): 3
- Incident infarcts at Day 90 by vascular territory: subjects (percent, in parentheses) ([2]; ACA, 25 BID, N = 285): (1.1)
- Incident infarcts at Day 90 by vascular territory: subjects (percent, in parentheses) ([2]; ACA, 25 QD, N = 305): (0.3)
- Incident infarcts at Day 90 by vascular territory: subjects (percent, in parentheses) ([2]; ACA, 50 BID, N = 306): (1.3)
- Incident infarcts at Day 90 by vascular territory: subjects (percent, in parentheses) ([2]; AChA, 50 BID, N = 306): (0.3)
- Incident infarcts at Day 90 by vascular territory: subjects (percent, in parentheses) ([2]; AChA, 100 BID, N = 275): (0.4)
- Incident infarcts at Day 90 by vascular territory: subjects (percent, in parentheses) ([2]; AChA, 200 BID, N = 311): (0.4)
- Incident infarcts at Day 90 by vascular territory: subjects (percent, in parentheses) ([2]; BASILAR - MIDBRAIN, 25 QD, N = 305): (0.3)
- Incident infarcts at Day 90 by vascular territory: subjects (percent, in parentheses) ([2]; BASILAR - PONS, 50 BID, N = 306): (0.3)
- Incident infarcts at Day 90 by vascular territory: subjects (percent, in parentheses) ([2]; BASILAR - THALAMUS, 25 BID, N = 285): (0.7)
- Incident infarcts at Day 90 by vascular territory: subjects (percent, in parentheses) ([2]; BASILAR - THALAMUS, 25 QD, N = 305): (0.3)
- Incident infarcts at Day 90 by vascular territory: subjects (percent, in parentheses) ([2]; BASILAR - THALAMUS, 50 BID, N = 306): (0.3)
- Incident infarcts at Day 90 by vascular territory: subjects (percent, in parentheses) ([2]; LENTICULO-STRIATE ARTERIES, 25 BID, N = 285): (2.1)
- Incident infarcts at Day 90 by vascular territory: subjects (percent, in parentheses) ([2]; LENTICULO-STRIATE ARTERIES, 25 QD, N = 305): (2.0)
- Incident infarcts at Day 90 by vascular territory: subjects (percent, in parentheses) ([2]; LENTICULO-STRIATE ARTERIES, 50 BID, N = 306): (1.3)
- Incident infarcts at Day 90 by vascular territory: subjects (percent, in parentheses) ([2]; LENTICULO-STRIATE ARTERIES, 100 BID, N = 275): (1.5)
- Incident infarcts at Day 90 by vascular territory: subjects (percent, in parentheses) ([2]; LENTICULO-STRIATE ARTERIES, 200 BID, N = 311): (1.5)
- Incident infarcts at Day 90 by vascular territory: subjects (percent, in parentheses) ([2]; MCA, 25 BID, N = 285): (4.9)
- Incident infarcts at Day 90 by vascular territory: subjects (percent, in parentheses) ([2]; MCA, 25 QD, N = 305): (4.9)
- Incident infarcts at Day 90 by vascular territory: subjects (percent, in parentheses) ([2]; MCA, 50 BID, N = 306): (4.2)
- Incident infarcts at Day 90 by vascular territory: subjects (percent, in parentheses) ([2]; MCA, 100 BID, N = 275): (4.7)
- Incident infarcts at Day 90 by vascular territory: subjects (percent, in parentheses) ([2]; MCA, 200 BID, N = 311): (4.7)
- Incident infarcts at Day 90 by vascular territory: subjects (percent, in parentheses) ([2]; PCA, 25 BID, N = 285): (1.4)
- Incident infarcts at Day 90 by vascular territory: subjects (percent, in parentheses) ([2]; PCA, 25 QD, N = 305): (2.6)
- Incident infarcts at Day 90 by vascular territory: subjects (percent, in parentheses) ([2]; PCA, 50 BID, N = 306): (2.0)
- Incident infarcts at Day 90 by vascular territory: subjects (percent, in parentheses) ([2]; PCA, 100 BID, N = 275): (2.5)
- Incident infarcts at Day 90 by vascular territory: subjects (percent, in parentheses) ([2]; PCA, 200 BID, N = 311): (2.5)
- Incident infarcts at Day 90 by vascular territory: subjects (percent, in parentheses) ([2]; PICA, 25 BID, N = 285): (1.1)
- Incident infarcts at Day 90 by vascular territory: subjects (percent, in parentheses) ([2]; PICA, 25 QD, N = 305): (0.3)
- Incident infarcts at Day 90 by vascular territory: subjects (percent, in parentheses) ([2]; PICA, 100 BID, N = 275): (1.1)
- Incident infarcts at Day 90 by vascular territory: subjects (percent, in parentheses) ([2]; PICA, 200 BID, N = 311): (1.1)
- Incident infarcts at Day 90 by vascular territory: subjects (percent, in parentheses) ([2]; SCA, 25 BID, N = 285): (0.7)
- Incident infarcts at Day 90 by vascular territory: subjects (percent, in parentheses) ([2]; SCA, 25 QD, N = 305): (0.7)
- Incident infarcts at Day 90 by vascular territory: subjects (percent, in parentheses) ([2]; SCA, 100 BID, N = 275): (0.4)
- Incident infarcts at Day 90 by vascular territory: subjects (percent, in parentheses) ([2]; SCA, 200 BID, N = 311): (0.4)
